Experimental data as given in patent publication US20170196834A1, “PREPARATION AND APPLICATION OF FLAVONOL AS BRAIN-TARGETING SYNERGIST” (GUANGDONG PHARMACEUTICAL UNIVERSITY, priority 2014, published 2017).
Like-named read-outs stand apart in the source and are kept apart here.

Key:
[1] = Resveratrol in blood and brain tissues 0.5 h after intragastric administration, UPLC-MS (Example 4); type: in vivo; settings: rat, oral, SD rats, 100 mg/kg resveratrol, 0.5 h after administration
Experimental: Treatment Group: LXN3 was made into suspension. 5 SD rats were administered the suspension at the dose of 100 mg/kg resveratrol and the volume of 20 ml/kg by intragastric administration;
Control group: Resveratrol was made into suspension. 5 SD rats were administered the suspension at the dose of 100 mg/kg resveratrol and the volume of 20 ml/kg by intragastric administration;
The rats were derw blood 0.5 h after administration and then sacrificed under anaesthesia. Brain tissues were taken to prepare brain homogenates. The content of resveratrol in the blood and brain tissues were detected by UPLC-MS.

MCAO forebrain ischemia = MCAO forebrain ischemia rats, improvement rate of cerebral infarction area (Example 4); type: in vivo; settings: gavage, 7 days after administration
Experimental: In addition, 30 rats of MCAO forebrain ischemia were prepared, and they were administered solvent saline, 100 mg/kg LXN3, and resveratrol by gavage at 20 ml/kg, 10 rats per group; […]

concentration at 0.5 h ([1]; brain, read-out: Resveratrol content in brain tissues): 3.12 ± 1.29 ng/g
concentration at 0.5 h ([1]; plasma, read-out: Plasma concentration of resveratrol): 5580 ± 1280 ng/mL
Compound: Oc1ccc(C=Cc2cc(O)cc(O)c2)cc1 [Resveratrol]
Improvement rate of cerebral infarction area (MCAO forebrain ischemia): 20.1 ± 8.6%
